According to US9210927B2, “Pesticidal compositions and processes related thereto” (Dow AgroSciences LLC, priority 2013, dated 2015):

Key:
Type in all cases: in vivo
[1] = test system: BAW (Spodoptera exigua); assay: Bioassays on Beet Armyworm (BAW), 128-well diet tray assay; conditions: Spodoptera exigua, 168 h, read-out: BAW Rating
Experimental: (§1) Bioassays on Beet Armyworm (“BAW”) and Corn Earworm (“CEW”) and Cabbage Looper (“CL”)
(§2) Certain molecules disclosed in this document were tested against BAW and CEW and CL using procedures described in the following examples. In the reporting of the results, the “BAW & CEW & CL Rating Table” was used (See Table Section).
Bioassays on BAW (Spodoptera exigua)
Bioassays on BAW were conducted using a 128-well diet tray assay. one to five second instar BAW larvae were placed in each well (3 mL) of the diet tray that had been previously filled with 1 mL of artificial diet to which 50 μg/cm^2 of the test compound (dissolved in 50 μL of 90:10 acetone-water mixture) had been applied (to each of eight wells) and then allowed to dry. Trays were covered with a clear self-adhesive cover, and held at 25° C., 14:10 light-dark for five to seven days. Percent mortality was recorded for the larvae in each well; activity in the eight wells was then averaged. The results are indicated in the table entitled “Table 3: Assay Results” (See Table Section).

[2] = test system: CEW (Helicoverpa zea); assay: Bioassays on Corn Earworm (CEW), 128-well diet tray assay; conditions: Helicoverpa zea, 168 h; percent mortality, second instar larvae, 50 μg/cm^2 on artificial diet, five to seven days, 25° C.; read-out: CEW Rating
Experimental: as §1, §2
Bioassays on CEW (Helicoverpa zea)
Bioassays on CEW were conducted using a 128-well diet tray assay. one to five second instar CEW larvae were placed in each well (3 mL) of the diet tray that had been previously filled with 1 mL of artificial diet to which 50 μg/cm^2 of the test compound (dissolved in 50 μL of 90:10 acetone-water mixture) had been applied (to each of eight wells) and then allowed to dry. Trays were covered with a clear self-adhesive cover, and held at 25° C., 14:10 light-dark for five to seven days. Percent mortality was recorded for the larvae in each well; activity in the eight wells was then averaged. The results are indicated in the table entitled “Table 3: Assay Results” (See Table Section).

[3] = test system: GPA (Myzus persicae); assay: Bioassays on Green Peach Aphid (GPA), foliar spray on cabbage seedlings; conditions: 72 h, corrected % control (Abbott), 200 ppm spray on cabbage seedlings, three days, read-out: GPA Rating
Experimental: Bioassays on Green Peach Aphid (“GPA”) (Myzus persicae) Certain molecules disclosed in this document were tested against GPA using procedures described in the following example. In the reporting of the results, the “GPA Rating Table” was used (See Table Section). Cabbage seedlings grown in 3-inch pots, with 2-3 small (3-5 cm) true leaves, were used as test substrate. The seedlings were infested with 20-50 GPA (wingless adult and nymph stages) one day prior to chemical application. Four pots with individual seedlings were used for each treatment. Test compounds (2 mg) were dissolved in 2 mL of acetone/MeOH (1:1) solvent, forming stock solutions of 1000 ppm test compound. The stock solutions were diluted 5× with 0.025% Tween 20 in H2O to obtain the solution at 200 ppm test compound. A hand-held aspirator-type sprayer was used for spraying a solution to both sides of […] leaves until runoff. Reference plants (solvent check) were sprayed with the diluent only containing 20% by volume of acetone/MeOH (1:1) solvent. Treated plants were held in a holding room for three days at approximately 25° C. and ambient relative humidity (RH) prior to grading. Evaluation was conducted by counting the number of live aphids per plant under a microscope. Percent Control was measured by using Abbott's correction formula (W. S. Abbott, “A Method of Computing the Effectiveness of an Insecticide” J. Econ. Entomol. 18 (1925), pp. 265-267) as follows. Corrected % Control=100*(X−Y)/X • where • X=No. of live aphids on solvent check plants and • Y=No. of live aphids on treated plants The results are indicated in the table entitled “Table 3: Assay Results” (See Table Section).

SMILES | pest or weed control at 50 µg/cm2 [1] | pest or weed control at 50 µg/cm2 [2] | pest or weed control at 200 ppm [3]
Cc1cc(/C=C/C(c2cc(Cl)cc(Cl)c2)C(F)(F)F)ccc1C(=O)NCc1ncccn1 (stereo not shown) [AC18] | 50 to 100% | 50 to 100% | 0 to 80%
O=C(NCc1ccc(/C=C/C(c2cc(Cl)cc(Cl)c2)C(F)(F)F)cc1)C1CC1 (stereo not shown) [CC2] | 50 to 100% | 50 to 100% | 0 to 80%
CC(C)(C)OC(=O)NCc1ccc(/C=C/C(c2cc(Cl)c(Cl)c(Cl)c2)C(F)(F)F)cc1Cl (stereo not shown) [CC39] | – | – | 0 to 80%
O=C(NCC(F)(F)F)c1ccc(/C=C/C(c2cc(Cl)cc(Cl)c2)C(F)(F)F)cc1 (stereo not shown) [AC4] | – | 50 to 100% | 0 to 80%
Cc1cc(/C=C\C(c2cc(Cl)cc(Cl)c2)C(F)(F)F)ccc1C(=O)NCc1ccc(Cl)nc1 (stereo not shown) [AC94] | – | 0 to 50% | 0 to 80%
O=C(NCc1ccc(/C=C/C(c2cc(Cl)c(Cl)c(Cl)c2)C(F)(F)F)cc1Br)C1CC1 (stereo not shown) [CC26] | 50 to 100% | – | 0 to 80%
CN(C)C(=O)c1ccc(/C=C/C(c2cc(Cl)cc(Cl)c2)C(F)(F)F)cc1 (stereo not shown) [AC3] | – | – | 0 to 80%
Cc1cc(/C=C/C(c2cc(Cl)cc(Cl)c2)C(F)(F)F)ccc1C(=O)NCC(=O)NNC(=O)C1CC1 (stereo not shown) [AC47] | – | – | 0 to 80%
Cc1cc(/C=C/C(c2cc(Cl)cc(Cl)c2)C(F)(F)F)ccc1C(=O)N(C)Cc1ccc(Cl)nc1 (stereo not shown) [AC117] | 50 to 100% | – | 0 to 80%
Cc1cc(/C=C/C(c2cc(Cl)cc(Cl)c2)C(F)(F)F)ccc1C(=O)NCC1CCOC1 (stereo not shown) [AC19] | – | – | 0 to 80%
CC(C)(C)C(=O)NCc1ccc(/C=C/C(c2cc(Cl)c(Cl)c(Cl)c2)C(F)(F)F)cc1Cl (stereo not shown) [CC12] | – | – | 0 to 80%
COc1cc(/C=C/C(c2cc(Cl)c(F)c(Cl)c2)C(F)(F)F)ccc1C(=O)NCc1ccc(Cl)nc1 (stereo not shown) [AC70] | – | – | 0 to 80%
Cc1cc(/C=C/C(c2cc(Cl)cc(Cl)c2)C(F)(F)F)ccc1C(=O)NCC(F)(F)F (stereo not shown) [AC6, (E)-4-(3-(3,5-Dichlorophenyl)-4,4,4-trifluorobut-1-enyl)-2-methyl-N-(2,2,2-trifluoroethyl)benzamide] | – | 50 to 100% | 0 to 80%
O=C(CC(F)(F)F)NOc1ccc(/C=C/C(c2cc(Cl)c(Cl)c(Cl)c2)C(F)(F)F)cc1 (stereo not shown) [CC53] | – | – | 0 to 80%
Cc1cc(/C=C/C(c2cc(Cl)cc(Cl)c2)C(F)(F)F)ccc1C(=O)NCc1nccn1C (stereo not shown) [AC50] | 50 to 100% | – | 0 to 80%
Fc1cc(/C=C/C(c2cc(Cl)cc(Cl)c2)C(F)(F)F)ccc1-n1cncn1 (stereo not shown) [DC48] | 50 to 100% | 50 to 100% | –
CCNC(=S)NCc1ccc(/C=C/C(c2cc(Cl)c(Cl)c(Cl)c2)C(F)(F)F)cc1Cl (stereo not shown) [CC37, (E)-1-(2-Chloro-4-(4,4,4-trifluoro-3-(3,4,5-trichlorophenyl)but-1-en-1-yl)benzyl)-3-ethylthiourea] | 50 to 100% | 50 to 100% | –
O=C(CNC(=O)c1ccc(/C=C/C(c2cc(Cl)c(F)c(Cl)c2)C(F)(F)F)cc1F)NCC(F)(F)F (stereo not shown) [AC68] | 50 to 100% | 50 to 100% | –
Cc1cc(/C=C/C(c2cc(Cl)cc(Cl)c2)C(F)(F)F)ccc1C(=O)NN(C)c1ccccc1F (stereo not shown) [AC45] | 50 to 100% | 50 to 100% | –
Cc1cc(/C=C/C(c2cc(Cl)cc(Cl)c2)C(F)(F)F)ccc1C(=O)NCc1ccccc1 (stereo not shown) [AC11] | 50 to 100% | 50 to 100% | –

SMILES | pest or weed control at 50 µg/cm2 [1] | pest or weed control at 50 µg/cm2 [2] | pest or weed control at 200 ppm [3]
N#Cc1cc(/C=C/C(c2cc(Cl)cc(C(F)(F)F)c2)C(F)(F)F)ccc1-n1cncn1 (stereo not shown) [DC33] | 50 to 100% | 50 to 100% | –
O=C(CC(F)(F)F)NCc1ccc(/C=C/C(c2cc(Cl)c(Cl)c(Cl)c2)C(F)(F)F)cc1F (stereo not shown) [CC27] | 50 to 100% | 50 to 100% | –
FC(F)(F)c1cc(/C=C/C(c2cc(Cl)cc(Cl)c2)C(F)(F)F)ccc1-n1cncn1 (stereo not shown) [DC51] | 50 to 100% | 50 to 100% | –
O=C(NCc1ncc(/C=C/C(c2cc(Cl)c(Cl)c(Cl)c2)C(F)(F)F)cc1Cl)C1CC1 (stereo not shown) [CC45] | 50 to 100% | 50 to 100% | –
Cc1cc(/C=C/C(c2cc(Cl)cc(Cl)c2)C(F)(F)F)ccc1C(=O)NCc1cncnc1 (stereo not shown) [AC39, 4-((E)-3-(3,5-Dichlorophenyl)-4,4,4-trifluorobut-1-enyl)-2-methyl-N-((pyrimidin-5-yl)methyl)benzamide] | 50 to 100% | 50 to 100% | –
O=C(CC(F)(F)F)NCC(=O)n1ccc2cc(/C=C/C(c3cc(Cl)c(F)c(Cl)c3)C(F)(F)F)ccc21 (stereo not shown) [BC13, (E)-N-(2-(5-(3-(3,5-Dichloro-4-fluorophenyl)-4,4,4-trifluorobut-1-en-1-yl)-1H-indol-1-yl)-2-oxoethyl)-3,3,3-trifluoropropanamide] | 50 to 100% | 50 to 100% | –
N#Cc1cc(/C=C/C(c2cc(Cl)c(Cl)c(Cl)c2)C(F)(F)F)ccc1-n1cnc([N+](=O)[O-])n1 (stereo not shown) [DC40, (E)-2-(3-Nitro-1H-1,2,4-triazol-1-yl)-5-(4,4,4-trifluoro-3-(3,4,5-trichlorophenyl)but-1-en-1-yl)benzonitrile] | 50 to 100% | 50 to 100% | –
FC(F)(F)C(/C=C/c1ccc(-n2cncn2)c(Br)c1)c1cc(Cl)cc(Cl)c1 (stereo not shown) [DC47] | 50 to 100% | 50 to 100% | –
O=C(c1ccc(/C=C/C(c2cc(Cl)cc(Cl)c2)C(F)(F)F)cc1)N1CCOCC1 (stereo not shown) [AC5] | – | – | 0 to 80%
O=C(NCc1ccc(/C=C/C(c2cc(Cl)cc(Cl)c2)C(F)(F)F)cc1Cl)C1CC1 (stereo not shown) [CC8] | 50 to 100% | 50 to 100% | –
CNC(=O)c1ccc(/C=C/C(c2cc(Cl)cc(Cl)c2)C(F)(F)F)cc1 (stereo not shown) [AC1] | – | – | 0 to 80%
COC(=O)C(=O)NCc1ccc(/C=C/C(c2cc(Cl)c(Cl)c(Cl)c2)C(F)(F)F)cc1Cl (stereo not shown) [CC41, (E)-Methyl 2-((2-chloro-4-(4,4,4-trifluoro-3-(3,4,5-trichlorophenyl)but-1-en-1-yl)benzyl)amino)-2-oxoacetate] | – | – | 0 to 80%
Cc1cc(/C=C/C(c2cc(Cl)cc(Cl)c2)C(F)(F)F)ccc1C(=O)N1CCCC1=O (stereo not shown) [AC8] | – | 0 to 50% | 0 to 80%
N#Cc1cc(/C=C/C(c2cc(Cl)cc(Cl)c2)C(F)(F)F)ccc1-n1cnc(N)n1 (stereo not shown) [DC38] | 50 to 100% | 50 to 100% | –
O=C(CC(F)(F)F)NCc1ccc(/C=C/C(c2cc(Cl)c(Cl)c(Cl)c2)C(F)(F)F)cc1C(F)(F)F (stereo not shown) [CC24] | 50 to 100% | 50 to 100% | –
Cc1cc(/C=C/C(c2cc(Cl)c(Cl)c(Cl)c2)C(F)(F)F)cc(C#N)c1-n1cncn1 (stereo not shown) [DC45] | 50 to 100% | 50 to 100% | –
Cc1cc(/C=C/C(c2cc(Cl)cc(Cl)c2)C(F)(F)F)ccc1-n1cncn1 (stereo not shown) [DC62] | 50 to 100% | 50 to 100% | –
O=C(NCc1ccc(Cl)cn1)c1ccc(/C=C/C(c2cc(Cl)cc(Cl)c2)C(F)(F)F)cc1Br (stereo not shown) [AC46] | 50 to 100% | 50 to 100% | –
FC(F)(F)CNC(=S)CNC(=S)c1ccc(/C=C/C(c2cc(Cl)c(Cl)c(Cl)c2)C(F)(F)F)cc1Br (stereo not shown) [AC90, (E)-2-Bromo-N-(2-thioxo-2-((2,2,2-trifluoroethyl)amino)ethyl)-4-(4,4,4-trifluoro-3-(3,4,5-trichlorophenyl)but-1-en-1-yl)benzothioamide] | 50 to 100% | 50 to 100% | –
